The values that follow are results of earlier work, collected in patent publication US8318452B2, “Solid culture medium for the detection and/or the species discrimination of glycopeptide-resistant enterococci” (priority 2006, dated 2012).

Data set [1] deals with VanB type glycopeptide-resistant enterococci. To be noted: Type of glycopeptide resistance VanB.
Data set [2] has as its system VanC type glycopeptide-resistant enterococci. Particulars: Type of glycopeptide resistance VanC.

Turning to teicoplanin, the MIC in data set [1] and in data set [2] was 0.5 to 1 µg/mL in each case.
